{"source": "patent US20070105878A1", "about": "“Purine formulations and methods for managing disorders” (priority 2005, published 2007)", "format_in_all_cases": "in vivo, mouse", "key": {"mice": {"test_system": "mice", "experiment": "acetylcholine writhing assay", "description": "Experiments were conducted to collect data in an animal model that reflects the gastrointestinal pain component of IBS. In this model, mice were injected intraperitoneally with acetylcholine. Acetylcholine evokes contractions of smooth muscle in the gastrointestinal tract. These contractions are painful and are expressed as a writhing response. Two measurements are made in this model: 1) time to onset of writhing and 2) total writhing time. In these studies, mice were treated with Compound 112 prior to acetylcholine administration and time to onset and total time writhing were measured.\nCompound 112 was tested for its ability to attenuate acetylcholine induce writhing. The anti-writhing response was compared to propentofylline, pentoxyfylline and theophylline. All drugs were administered subcutaneously 30 minutes prior to acetylcholine administration. Acetylcholine was administered at a dose of 3 mg/kg (IP). Acetylcholine writhing was measured for a 10 minute time period. Time to onset and total writhing time were recorded.\nCompound 112 was administered via both routes 30 minutes prior to acetylcholine administration. Acetylcholine was administered at a dose of 3 mg/kg (IP). Acetylcholine writhing was measured for a 10 minute time period. Time to onset and total writhing time were recorded."}, "Male C57/B16 mice": {"test_system": "Male C57/B16 mice", "experiment": "experimental autoimmune encephalomyelitis (EAE), animal model of multiple sclerosis, open-field analysis", "conditions": "daily administration at 6 and 30 mg/kg", "description": "Experimental autoimmune encephalomyelitis (EAE) is an animal model of multiple sclerosis. This model is produced by administering a myelin basic protein peptide (MBP) fragment that induces an autoimmune response directed to the myelin sheath surrounding motor neurons. Demyelination of neurons within the CNS leads to impaired locomotor function and mirrors symptoms of the human disease. The disease, and the model, appears in exacerbations and remissions and is characterized by loss of nerve conduction and chronic progression of disability. In this study, we assessed the progression of locomotor dysfunction in mice subjected to EAE and treated with an illustrative compound of the invention.\nMale C57/B16 mice (Harlan Sprague Dawley, Indianapolis, Ind.) 8 weeks of age were used for these studies. […]\nOpen-field assessments were conducted on days 7, 14, 21 and 28. Mice were evaluated by activity in an open-field activity monitor (Med-Associates-OFA ENV-510). Mice were place in the activity monitor for 15 minutes and a variety of open-field behaviors were monitored including distance traveled, ambulatory time, rearing behavior, time in center of field and stereotypic behavior. Data were averaged and analyzed by ANOVA followed by a post-hoc Tukey's test with a p value of less then […] indicating a statistical difference."}, "Male CD1 mice [1]": {"test_system": "Male CD1 mice", "experiment": "colonic propulsion assay (glass bead expulsion test)", "conditions": "for increase of expulsion time from controls: subcutaneous, 30 minutes prior to glass bead expulsion test", "description": "The gastrointestinal transit model described in this report is a method for evaluating a test compounds ability to alter colonic propulsive motility. This model is designed to identify pharmacological agents that produce inhibitory effects on propulsive motor activity and is an excellent predictor of drugs that may be useful for the therapy of irritable bowel syndrome. This model can be modified to identify antagonists of constipative drugs or diarrhea producing drugs. In this study, Compound 112 was tested for its ability to affect colonic transport.\nMale CD1 mice (Harlan) 12 weeks of age were used for this study. Mice were kept on a 12 hr light dark cycle and fed ad libitum.\nCompound 112 was administered 30 minutes prior to the colonic propulsion study. After dosing, a 3 mm glass bead was inserted through the anus to a depth of 2 cm into the distal colon using a pre-measured plastic rod. […] A cutoff of 30 minutes was used. Data are expressed as the average ±SEM for each treatment. Data were averaged and analyzed by ANOVA followed by a post-hoc Tukey's test with a p value of less then […] indicating a statistical difference.\nCompound 112 was compared to morphine, topfisopam, propentofylline, pentoxyfylline, and theophylline in the colonic propulsion assay. Drugs were administered subcutaneously at the indicated doses 30 minutes prior to the colonic propulsion assay."}, "CD1: ICR mice [2]": {"test_system": "CD1: ICR mice", "experiment": "forced swim test in mice", "description": "FIG. 2 illustrates forced swim test in mice. Mice are administered illustrative compounds of the invention and subjected to the forced swim test for 6 minutes with activity timed for the duration of the test. Compound 112 was administered 30 minutes prior to the swim test.\nThe forced swim test is another commonly used animal model for detecting anti-depressant activity of pharmacological agents. This test is complimentary to the tail suspension test. When mice are required to swim in a container with no route of escape they develop a behavioral despair that is characterized by immobility except for small movements needed to remain afloat. This immobility is thought to reflect a state of lowered ‘mood’ (i.e., depression) in which animals have given up hope of escaping. Forced swim test immobility is attenuated by a variety of clinically active antidepressants.\n(§1) In both assays, antidepressants increase the amount of struggle and the latency until the first extended immobility. These assays are considered to be good predictors for antidepressant activity and identifies nearly all antidepressant classes including tricyclics, SSRIs, 5-HT1A receptor agonists, and MAOIs.\n(§2) CD1: ICR mice from Harlan 12 weeks of age. Animals were dosed with Compound 112, 30 minutes prior to tail suspension analysis or forced swim test."}, "Male CD1 mice [3]": {"test_system": "Male CD1 mice", "experiment": "micturition model of overactive bladder", "conditions": "1 hr period after furesomide", "description": "Micturition is a model of overactive bladder and is achieved through complex neurological mechanisms involving somatic, autonomic and central components. Disorders of micturition can roughly be classified as disturbances of bladder storage or of emptying. Failure to store urine may lead to various forms of incontinence, the main forms of which are urge and stress incontinence. Antimuscarinics are the mainstay of pharmacological treatment of the overactive bladder syndrome, which is characterized by urgency, frequency, and urge incontinence. The present study describes the activity of Compound 112 in an animal model of incontinence.\nMale CD1 mice (Harlan Sprague Dawley, Indianapolis, Ind.) 12 weeks of age were used for these studies. This study was multiplexed with the pulmonary inflammation study. Animals were housed five per cage, kept on a standard 12 hr light cycle. Sample size was 6 animals per group.\nMice were injected with Compound 112 or vehicle solution as described, and then injected with 1 ml of water (s.c). Furesomide (SigmaAldrich) was formulated at a concentration of 1 mg/ml in water and injected ip at a volume of 10 ml/kg within 5 minutes after drug and water administration. […] Data were averaged and analyzed by ANOVA followed by a post-hoc Tukey's test with a p value of […] indicating a statistical difference."}, "CD1: ICR mice [4]": {"test_system": "CD1: ICR mice", "experiment": "tail suspension test in mice", "description": "There are a number of animal models of depression that are used to identify pharmacological agents that have clinical potential as anti-depressant agents. One such animal model is the mouse tail-suspension model. Mice, suspended by the tail, will rapidly develop behavioral despair that is characterized by immobility. This immobility is thought to reflect a state of lowered ‘mood’ (i.e., depression) in which animals have given up hope of escaping.\nas §1, §2\nFor the tail suspension test, a clip was attached to each mouse tail. Mice (2 per run) were suspended from the pressure transducer in an isolated plexiglass tail suspension chamber. Thirty seconds after suspending the mouse from the transducer, struggle activity was monitored via the transducer that was connected to a computer. The following parameters were measured: 1) number of despair events lasting 5 seconds or longer; 2) Total time in despair; and average time in despair. Data were averaged and analyzed by ANOVA followed by a post-hoc Tukey's test with a p value of less then […] indicating a statistical difference."}, "[5]": {"conditions": "subcutaneous, 30 minutes prior to acetylcholine 3 mg/kg IP"}}}
{"smiles": "CCCn1cnc2c1c(=O)n(CCCCC(C)=O)c(=O)n2C", "note": "[propentofylline, reference compound]", "values": [{"measurement": "activity on acetylcholine induced writhing", "setting": "mice; [5]", "result": "had activity"}]}
{"smiles": "CC(=O)CCCCn1c(=O)c2c(ncn2C)n(C)c1=O", "note": "[pentoxyfylline, reference compound]", "values": [{"measurement": "activity on acetylcholine induced writhing", "setting": "mice; [5]", "result": "had activity"}]}
{"smiles": "CCOCn1cnc2c1c(=O)n(CCCCC(C)(C)O)c(=O)n2C", "note": "[Compound 112]", "values": [{"measurement": "development of locomotor dysfunction", "setting": "Male C57/B16 mice", "result": "significantly attenuated"}, {"measurement": "potency, oral vs subcutaneous administration", "setting": "mice; 30 minutes prior to acetylcholine 3 mg/kg IP", "result": "significantly more potent"}, {"measurement": "activity on onset time", "setting": "mice; SC, 30 mg/kg", "result": "produced activity"}, {"measurement": "activity on onset time", "setting": "mice; oral, 10 mg/kg", "result": "significant activity"}, {"measurement": "activity on acetylcholine induced writhing", "setting": "mice; [5]", "result": "had activity"}, {"measurement": "overall potency vs theophylline, pentoxyfylline and propentofylline", "setting": "mice; [5]", "result": "more potent"}, {"measurement": "potency in attenuating writhing time vs propentofylline, pentoxyfylline and theophylline", "setting": "mice; [5]", "result": "significantly more potent"}, {"measurement": "potency in delaying onset of writhing vs propentofylline, pentoxyfylline and theophylline", "setting": "mice; [5]", "result": "significantly more potent"}, {"measurement": "expulsion of a colonically inserted glass bead", "setting": "Male CD1 mice [1]; 30 and 100 mg/kg, 30 minutes after administration", "result": "significantly slowed"}, {"measurement": "extension of expulsion time", "setting": "Male CD1 mice [1]; 30 and 100 mg/kg, vs vehicle", "result": "> 5", "unit": "fold"}, {"measurement": "increase of expulsion time from controls", "setting": "Male CD1 mice [1]", "result": 5, "unit": "fold"}, {"measurement": "anti-depressant activity", "setting": "CD1: ICR mice [2]; higher doses (≧30 mg/kg)", "result": "lost"}, {"measurement": "antidepressant activity", "setting": "CD1: ICR mice [2]; lower doses (6 and 10 mg/kg)", "result": "observed"}, {"measurement": "number of urination events", "setting": "Male CD1 mice [3]", "result": "significantly reduced"}, {"measurement": "urinary volume", "setting": "Male CD1 mice [3]", "result": "significantly reduced"}, {"measurement": "number of despair events", "setting": "CD1: ICR mice [4]; 6 mg/kg, dosed 30 minutes before test", "result": "reduced"}, {"measurement": "despair time", "setting": "CD1: ICR mice [4]; 6 and 30 mg/kg, dosed 30 minutes before test", "result": "significantly decreased"}, {"measurement": "anti-depressant activity", "setting": "CD1: ICR mice [4]; higher doses (≧30 mg/kg)", "result": "lost"}, {"measurement": "antidepressant activity", "setting": "CD1: ICR mice [4]; lower doses (6 and 10 mg/kg)", "result": "observed"}]}
{"smiles": "CCC1C(C)=NN=C(c2ccc(OC)c(OC)c2)c2cc(OC)c(OC)cc21", "note": "(centres unmarked) [tofisopam, reference compound]", "values": [{"measurement": "increase of expulsion time from controls", "setting": "Male CD1 mice [1]", "result": "less than 3 fold"}]}
{"smiles": "Cn1c(=O)c2[nH]cnc2n(C)c1=O", "note": "[theophylline, reference compound]", "values": [{"measurement": "activity on acetylcholine induced writhing", "setting": "mice; [5]", "result": "had activity"}]}
